Measurements published in patent publication EP3154958B1, “PHOSPHATIDYLINOSITOL 3-KINASE INHIBITORS” (Gilead Sciences, Inc., priority 2014, dated 2015).

Tests used:
Type in all cases: biochemical
PI3Kβ = molecular target: T1, PI3Kβ (Homo sapiens, UniProt P42338); assay: TR-FRET enzymatic activity assay, PI3Kβ; details: for IC50: recombinant heterodimeric PI3Kβ 25-50 pM, 2× Km ATP, 30 minutes at 25°C; for PI3Kγ/PI3Kβ ratio: ratio of IC50 values
T1 construct: made in house
Procedure, shortened: (§1)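 Read-out is TR-FRET. The assay scores enzymatic activity of the individual PI3K isoforms in the presence of compound.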

PI3Kδ = molecular target: T2, PI3Kδ (Homo sapiens, UniProt O00329); assay: TR-FRET enzymatic activity assay, PI3Kδ; details: recombinant heterodimeric PI3Kδ 25-50 pM, 2× Km ATP, 30 minutes at 25°C
T2 construct: made in house
Procedure, shortened: as §1

PI3Kγ = molecular target: T3, PI3Kγ (Homo sapiens, UniProt P48736); assay: TR-FRET enzymatic activity assay, PI3Kγ; details: recombinant heterodimeric PI3Kγ 2 nM, 2× Km ATP, 30 minutes at 25°C
T3 construct: made in house
Procedure, shortened: as §1

T2 sequence (O00329 whole entry): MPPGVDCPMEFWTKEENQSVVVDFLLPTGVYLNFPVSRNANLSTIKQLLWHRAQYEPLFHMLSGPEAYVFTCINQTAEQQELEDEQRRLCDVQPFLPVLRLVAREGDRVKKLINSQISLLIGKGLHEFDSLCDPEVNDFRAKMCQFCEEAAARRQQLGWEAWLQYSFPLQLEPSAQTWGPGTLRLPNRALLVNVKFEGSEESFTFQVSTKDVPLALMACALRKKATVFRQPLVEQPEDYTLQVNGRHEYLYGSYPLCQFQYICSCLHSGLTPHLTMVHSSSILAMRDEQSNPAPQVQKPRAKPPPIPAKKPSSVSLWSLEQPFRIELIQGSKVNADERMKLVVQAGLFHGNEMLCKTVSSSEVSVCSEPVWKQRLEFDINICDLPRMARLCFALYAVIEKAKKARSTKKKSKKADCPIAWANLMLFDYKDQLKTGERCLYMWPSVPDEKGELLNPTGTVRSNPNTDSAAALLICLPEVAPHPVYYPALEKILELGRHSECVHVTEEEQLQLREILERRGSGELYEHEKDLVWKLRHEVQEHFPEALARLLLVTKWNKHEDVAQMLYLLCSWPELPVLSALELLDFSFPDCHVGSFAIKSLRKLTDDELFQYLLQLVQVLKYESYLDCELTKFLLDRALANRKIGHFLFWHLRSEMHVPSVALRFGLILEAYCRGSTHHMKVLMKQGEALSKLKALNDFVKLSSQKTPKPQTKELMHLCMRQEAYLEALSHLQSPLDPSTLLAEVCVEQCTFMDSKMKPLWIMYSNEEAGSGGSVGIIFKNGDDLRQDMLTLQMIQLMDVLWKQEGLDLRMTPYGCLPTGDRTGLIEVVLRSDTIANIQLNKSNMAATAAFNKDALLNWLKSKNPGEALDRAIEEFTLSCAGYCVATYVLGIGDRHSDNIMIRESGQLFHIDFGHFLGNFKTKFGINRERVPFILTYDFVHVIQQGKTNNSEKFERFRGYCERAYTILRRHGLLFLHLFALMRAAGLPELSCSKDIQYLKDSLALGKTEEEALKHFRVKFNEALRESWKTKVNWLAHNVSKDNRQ
T2 sequence (P27986 whole entry partner): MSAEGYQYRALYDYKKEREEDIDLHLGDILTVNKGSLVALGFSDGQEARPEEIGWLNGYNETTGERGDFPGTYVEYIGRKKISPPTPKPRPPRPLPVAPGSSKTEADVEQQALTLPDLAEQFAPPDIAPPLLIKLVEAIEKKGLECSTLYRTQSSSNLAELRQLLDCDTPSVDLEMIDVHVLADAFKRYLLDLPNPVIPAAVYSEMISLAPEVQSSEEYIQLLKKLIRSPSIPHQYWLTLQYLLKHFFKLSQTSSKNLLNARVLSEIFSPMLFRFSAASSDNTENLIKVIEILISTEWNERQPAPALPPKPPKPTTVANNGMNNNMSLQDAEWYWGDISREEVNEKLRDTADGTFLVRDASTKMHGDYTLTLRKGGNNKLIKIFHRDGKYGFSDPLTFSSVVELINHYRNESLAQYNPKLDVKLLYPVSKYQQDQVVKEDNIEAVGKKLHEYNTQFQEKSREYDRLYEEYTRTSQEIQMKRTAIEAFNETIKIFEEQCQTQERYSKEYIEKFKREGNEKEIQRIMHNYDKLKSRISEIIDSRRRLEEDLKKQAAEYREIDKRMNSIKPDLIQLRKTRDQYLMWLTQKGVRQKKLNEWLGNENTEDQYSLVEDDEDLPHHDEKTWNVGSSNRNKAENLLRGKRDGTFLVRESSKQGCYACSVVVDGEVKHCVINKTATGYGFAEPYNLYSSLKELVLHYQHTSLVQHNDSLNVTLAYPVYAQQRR
T3 sequence (P48736 whole entry): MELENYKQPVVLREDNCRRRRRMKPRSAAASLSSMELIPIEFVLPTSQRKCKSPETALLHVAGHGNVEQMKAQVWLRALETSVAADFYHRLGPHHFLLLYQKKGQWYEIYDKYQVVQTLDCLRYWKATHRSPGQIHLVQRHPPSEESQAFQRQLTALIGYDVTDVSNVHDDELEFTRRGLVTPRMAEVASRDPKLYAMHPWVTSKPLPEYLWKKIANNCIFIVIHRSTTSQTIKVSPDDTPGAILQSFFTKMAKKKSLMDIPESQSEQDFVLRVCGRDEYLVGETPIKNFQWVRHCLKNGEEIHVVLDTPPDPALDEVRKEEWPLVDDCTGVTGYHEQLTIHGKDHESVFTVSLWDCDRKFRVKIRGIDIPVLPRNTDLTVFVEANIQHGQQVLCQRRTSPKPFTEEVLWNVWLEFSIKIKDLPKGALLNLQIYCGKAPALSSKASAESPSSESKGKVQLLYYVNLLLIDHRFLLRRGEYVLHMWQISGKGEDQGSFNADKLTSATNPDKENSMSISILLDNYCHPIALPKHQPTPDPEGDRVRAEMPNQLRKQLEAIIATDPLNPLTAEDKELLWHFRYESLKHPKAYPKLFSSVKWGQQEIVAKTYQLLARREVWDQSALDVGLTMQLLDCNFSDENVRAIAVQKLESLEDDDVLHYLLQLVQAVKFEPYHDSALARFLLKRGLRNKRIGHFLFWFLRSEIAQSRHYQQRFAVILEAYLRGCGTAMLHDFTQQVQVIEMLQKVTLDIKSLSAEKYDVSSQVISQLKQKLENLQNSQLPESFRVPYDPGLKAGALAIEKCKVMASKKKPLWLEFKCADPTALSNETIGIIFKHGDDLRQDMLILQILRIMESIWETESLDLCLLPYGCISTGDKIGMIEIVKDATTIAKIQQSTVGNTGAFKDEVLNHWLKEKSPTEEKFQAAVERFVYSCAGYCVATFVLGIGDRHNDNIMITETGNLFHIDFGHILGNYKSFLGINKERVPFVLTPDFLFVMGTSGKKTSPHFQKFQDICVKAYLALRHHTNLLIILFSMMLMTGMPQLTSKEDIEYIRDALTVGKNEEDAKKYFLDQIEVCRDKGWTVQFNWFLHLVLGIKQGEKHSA
T3 sequence (Q8WYR1 whole entry partner): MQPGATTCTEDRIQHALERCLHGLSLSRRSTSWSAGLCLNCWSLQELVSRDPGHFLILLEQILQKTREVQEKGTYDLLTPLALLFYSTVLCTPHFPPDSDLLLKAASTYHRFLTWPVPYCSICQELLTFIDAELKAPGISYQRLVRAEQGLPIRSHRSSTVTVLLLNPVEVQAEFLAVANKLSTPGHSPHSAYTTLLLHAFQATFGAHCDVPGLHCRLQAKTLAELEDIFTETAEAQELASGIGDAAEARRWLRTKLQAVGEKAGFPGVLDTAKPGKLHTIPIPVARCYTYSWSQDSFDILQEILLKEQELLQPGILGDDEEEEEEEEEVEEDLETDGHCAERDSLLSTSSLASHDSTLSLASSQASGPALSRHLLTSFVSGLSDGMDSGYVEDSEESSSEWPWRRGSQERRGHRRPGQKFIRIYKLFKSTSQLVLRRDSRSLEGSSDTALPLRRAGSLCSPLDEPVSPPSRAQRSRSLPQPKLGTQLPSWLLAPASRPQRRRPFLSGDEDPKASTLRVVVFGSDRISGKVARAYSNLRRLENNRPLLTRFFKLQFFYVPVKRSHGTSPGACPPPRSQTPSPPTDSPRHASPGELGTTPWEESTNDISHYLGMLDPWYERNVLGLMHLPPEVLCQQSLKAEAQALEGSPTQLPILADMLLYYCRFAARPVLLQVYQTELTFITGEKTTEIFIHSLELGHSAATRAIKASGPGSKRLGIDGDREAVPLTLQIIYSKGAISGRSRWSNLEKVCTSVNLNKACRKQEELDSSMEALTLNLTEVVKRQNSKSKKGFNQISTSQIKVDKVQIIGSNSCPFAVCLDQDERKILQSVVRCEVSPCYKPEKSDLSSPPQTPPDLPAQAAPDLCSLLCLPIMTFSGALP
T1 sequence (P42338 whole entry): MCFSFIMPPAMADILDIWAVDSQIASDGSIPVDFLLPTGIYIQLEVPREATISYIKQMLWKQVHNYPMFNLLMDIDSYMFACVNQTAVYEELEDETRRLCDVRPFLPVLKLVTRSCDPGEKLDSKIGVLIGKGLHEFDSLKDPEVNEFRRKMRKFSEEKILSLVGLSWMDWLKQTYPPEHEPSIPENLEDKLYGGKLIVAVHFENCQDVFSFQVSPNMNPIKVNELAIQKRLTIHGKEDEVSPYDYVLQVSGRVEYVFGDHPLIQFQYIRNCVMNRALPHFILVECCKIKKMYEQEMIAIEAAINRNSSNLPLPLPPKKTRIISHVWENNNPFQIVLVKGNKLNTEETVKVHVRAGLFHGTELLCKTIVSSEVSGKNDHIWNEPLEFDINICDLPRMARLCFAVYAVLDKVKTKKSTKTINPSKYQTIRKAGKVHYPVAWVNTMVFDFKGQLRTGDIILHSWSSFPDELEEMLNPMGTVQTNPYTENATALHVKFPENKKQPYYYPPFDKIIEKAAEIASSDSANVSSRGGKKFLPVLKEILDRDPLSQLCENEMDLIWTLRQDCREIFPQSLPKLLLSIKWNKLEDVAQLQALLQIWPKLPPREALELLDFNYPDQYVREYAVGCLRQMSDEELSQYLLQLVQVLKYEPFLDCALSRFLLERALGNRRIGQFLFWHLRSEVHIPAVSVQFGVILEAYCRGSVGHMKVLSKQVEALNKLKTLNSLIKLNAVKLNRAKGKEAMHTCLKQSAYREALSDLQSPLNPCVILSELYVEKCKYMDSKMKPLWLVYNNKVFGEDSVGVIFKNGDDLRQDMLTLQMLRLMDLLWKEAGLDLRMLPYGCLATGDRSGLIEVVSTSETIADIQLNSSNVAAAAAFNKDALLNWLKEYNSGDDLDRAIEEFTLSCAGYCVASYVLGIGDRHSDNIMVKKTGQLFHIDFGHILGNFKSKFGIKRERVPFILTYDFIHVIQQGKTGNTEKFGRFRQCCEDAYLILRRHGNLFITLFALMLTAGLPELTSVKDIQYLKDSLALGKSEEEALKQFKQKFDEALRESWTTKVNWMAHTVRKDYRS
T1 sequence (P27986 whole entry partner): as the sequence (P27986 whole entry partner) above

**Q.** Which results are given for `C[C@H](Nc1ncnc(N)c1C#Cc1ccc(F)cn1)c1nc2cccc(Cl)c2c(=O)n1C1CNC1` [Compound 132, (S)-2-(1-((6-amino-5-((5-fluoropyridin-2-yl)ethynyl)pyrimidin-4-yl)amino)ethyl)-3-(azetidin-3-yl)-5-chloroquinazolin-4(3H)-one]?
**A.** IC50 (PI3Kβ): 1 µM; IC50 (PI3Kδ): 0.25 µM; IC50 (PI3Kγ): > 10 µM

**Q.** For `O=c1c2c(Cl)cccc2nc([C@@H]2CCCN2c2ncnn3ccnc23)n1N1CCNCC1` [Compound 133, (S)-5-chloro-2-(1-(imidazo[2,1-f][1,2,4]triazin-4-yl)pyrrolidin-2-yl)-3-(piperazin-1-yl)quinazolin-4(3H)-one], which IC50 (PI3Kβ) is on record?
**A.** Its IC50 is 0.9 µM.

**Q.** And the IC50 (PI3Kδ)?
**A.** The IC50 was 0.075 µM.

**Q.** And the IC50 (PI3Kγ)?
**A.** Its IC50 is greater than 10 µM.

**Q.** What does the source list for `C[C@H](Nc1ncnc(N)c1C#N)c1nc2cccc(Cl)c2c(=O)n1C1CCN(C2CCN(C)CC2)CC1` [Compound 134, (S)-4-amino-6-((1-(5-chloro-3-(1'-methyl-[1,4'-bipiperidin]-4-yl)-4-oxo-3,4-dihydroquinazolin-2-yl)ethyl)amino)pyrimidine-5-carbonitrile]?
**A.** IC50 (PI3Kβ): 2.2 µM; IC50 (PI3Kδ): 0.035 µM; IC50 (PI3Kγ): > 10 µM

**Q.** How did the IC50 (PI3Kβ) turn out when `CCN1CCC(n2c([C@H](C)Nc3ncnc4[nH]cnc34)nc3cccc(Cl)c3c2=O)C1` (stereo partly drawn) [Compound 135, 2-((S)-1-((9H-purin-6-yl)amino)ethyl)-5-chloro-3-(1-ethylpyrrolidin-3-yl)quinazolin-4(3H)-one] was run?
**A.** The IC50 was 4.7 µM.

**Q.** What about the IC50 (PI3Kδ) of the same molecule?
**A.** The IC50 was 0.07 µM.

**Q.** And the IC50 (PI3Kγ)?
**A.** The IC50 was greater than 10 µM.

**Q.** Which results are given for `C[C@H](Nc1nc(N)nc(N)c1C#N)c1nc2cccc(Cl)c2c(=O)n1[C@H]1CCOC1` [Compound 136, 2,4-diamino-6-(((S)-1-(5-chloro-4-oxo-3-((S)-tetrahydrofuran-3-yl)-3,4-dihydroquinazolin-2-yl)ethyl)amino)pyrimidine-5-carbonitrile]?
**A.** IC50 (PI3Kβ): 0.192 µM; IC50 (PI3Kδ): 0.002 µM; IC50 (PI3Kγ): 0.259 µM

**Q.** `C[C@H](Nc1nc(N)nc(N)c1C#N)c1nc2cccc(Cl)c2c(=O)n1[C@@H]1CCOC1` [Compound 137, 2,4-diamino-6-(((S)-1-(5-chloro-4-oxo-3-((R)-tetrahydrofuran-3-yl)-3,4-dihydroquinazolin-2-yl)ethyl)amino)pyrimidine-5-carbonitrile] was tested. Which IC50 (PI3Kβ) did it give?
**A.** Its IC50 is 0.047 µM.

**Q.** What about the IC50 (PI3Kδ) of the same molecule?
**A.** Its IC50 is 0.005 µM.

**Q.** What about the IC50 (PI3Kγ) of the same molecule?
**A.** Its IC50 is 0.229 µM.

**Q.** Which results are given for `N#Cc1c(N)nc(N)nc1N[C@H](c1nc2c(Cl)ccc(Cl)c2c(=O)n1C1CCC1)C1CC1` [Compound 138, (S)-2,4-diamino-6-((cyclopropyl(5,8-dichloro-3-cyclobutyl-4-oxo-3,4-dihydroquinazolin-2-yl)methyl)amino)pyrimidine-5-carbonitrile]?
**A.** IC50 (PI3Kβ): 0.058 µM; IC50 (PI3Kδ): 0.001 µM; IC50 (PI3Kγ): 0.524 µM

**Q.** Which PI3Kγ/PI3Kβ ratio (PI3Kβ) does the source give for `C[C@H](Nc1nc(N)nc(N)c1C#N)c1nc2cccc(Cl)c2c(=O)n1-c1ccccc1` [Compound X, (S)-2,4-diamino-6-((1-(5-chloro-4-oxo-3-phenyl-3,4-dihydroquinazolin-2-yl)ethyl)amino)pyrimidine-5-carbonitrile, reference compound] here?
**A.** Its PI3Kγ/PI3Kβ ratio is 0.6.

**Q.** What about the PI3Kγ/PI3Kβ ratio (PI3Kβ; as stated in b147) of the same molecule?
**A.** Its PI3Kγ/PI3Kβ ratio is “less than 1 fold”.

**Q.** What about the IC50 (PI3Kβ) of the same molecule?
**A.** Its IC50 is 0.011 µM.

**Q.** What about the IC50 (PI3Kδ) of the same molecule?
**A.** The IC50 was 0.0002 µM.

**Q.** And the IC50 (PI3Kγ)?
**A.** Its IC50 is 0.007 µM.
